These are literature values, as cited in patent publication US12220388B2, “Uses of curcuminoid compositions” (Givaudan France Naturals SAS, priority 2018, dated 2025).

The data set deals with Caco-2 cells.

With `COc1cc(/C=C/C(=O)CC(=O)/C=C/c2ccc(O)c(OC)c2)ccc1O` [curcumin], for the setting “from correlation of Caco-2 Papp with human absorption in vivo”, the “predicted absorption in humans” value is recorded as 0-20%. Also, for the setting “in vitro human intestinal cells model”, the “Papp (apparent permeability coefficient)” value is 0.1 ×10⁻⁶ cm/s.
